The record followed here is ChEMBL document CHEMBL1909046, “DrugMatrix in vitro pharmacology data”.

For orientation: IC50 means the concentration that inhibits the measured activity by half. The term Ki denotes the equilibrium dissociation constant of an inhibitor or competing ligand from its target.

For assay [1], the target named is 5-hydroxytryptamine receptor 6 (Homo sapiens, UniProt P50406). In kind it is cell membranes, HeLa, Membrane. Particulars: hela. Further: in other assays of this panel Not Active means under 50% inhibition at 10 µM.
Sequence of 5-hydroxytryptamine receptor 6 (P50406 whole entry): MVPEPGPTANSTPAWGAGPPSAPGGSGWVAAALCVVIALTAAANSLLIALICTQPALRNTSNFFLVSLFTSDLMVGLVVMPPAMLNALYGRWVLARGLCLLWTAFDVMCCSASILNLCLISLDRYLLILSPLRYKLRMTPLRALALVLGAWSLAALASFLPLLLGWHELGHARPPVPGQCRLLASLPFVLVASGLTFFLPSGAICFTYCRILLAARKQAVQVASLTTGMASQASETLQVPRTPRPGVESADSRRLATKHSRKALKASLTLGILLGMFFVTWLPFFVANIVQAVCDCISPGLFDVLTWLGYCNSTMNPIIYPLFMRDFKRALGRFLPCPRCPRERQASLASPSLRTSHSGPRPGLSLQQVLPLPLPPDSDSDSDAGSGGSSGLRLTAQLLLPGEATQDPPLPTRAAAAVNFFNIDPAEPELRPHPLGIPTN
The target in assay [2] is T1, Vasoactive intestinal polypeptide receptor 1 (Homo sapiens, UniProt P32241). Further: in other assays of this panel Not Active means under 50% inhibition at 10 µM.
T1 sequence (P32241 whole entry): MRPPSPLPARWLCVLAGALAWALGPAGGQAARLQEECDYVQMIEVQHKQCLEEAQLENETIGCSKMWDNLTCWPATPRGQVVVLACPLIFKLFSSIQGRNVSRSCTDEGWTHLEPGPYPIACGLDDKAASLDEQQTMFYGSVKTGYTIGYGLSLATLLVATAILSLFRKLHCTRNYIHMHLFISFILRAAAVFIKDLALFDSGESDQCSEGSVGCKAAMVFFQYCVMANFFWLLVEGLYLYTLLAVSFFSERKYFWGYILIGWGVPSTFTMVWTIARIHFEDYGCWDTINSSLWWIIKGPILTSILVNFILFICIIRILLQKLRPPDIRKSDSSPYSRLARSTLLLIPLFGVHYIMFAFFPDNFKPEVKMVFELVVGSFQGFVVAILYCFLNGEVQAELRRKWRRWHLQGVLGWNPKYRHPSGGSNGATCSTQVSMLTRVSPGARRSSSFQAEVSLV
In kind it is cell membranes, Membrane. Conditions: ht-29.

The next assay concerns the target D(1A) dopamine receptor (Homo sapiens, UniProt P21728). The experiment in a line: DRUGMATRIX: Dopamine D1 radioligand binding (ligand: [3H] SCH-23390). Particulars: cho; Not Active = under 50% inhibition at 10 µM. It is filed as cell membranes, CHO, Membrane.
Assay [3] in a line: DRUGMATRIX: Imidazoline I2, Central radioligand binding (ligand: [3H] Idazoxan). In kind it is cell membranes, Rattus norvegicus, Wistar, Cerebral cortex, Membrane. Particulars: Not Active = under 50% inhibition at 10 µM.
The target in assay [4] is T2, Neuropeptide Y receptor type 2 (Homo sapiens, UniProt P49146). Further: in other assays of this panel Not Active means under 50% inhibition at 10 µM.
T2 sequence (P49146 whole entry): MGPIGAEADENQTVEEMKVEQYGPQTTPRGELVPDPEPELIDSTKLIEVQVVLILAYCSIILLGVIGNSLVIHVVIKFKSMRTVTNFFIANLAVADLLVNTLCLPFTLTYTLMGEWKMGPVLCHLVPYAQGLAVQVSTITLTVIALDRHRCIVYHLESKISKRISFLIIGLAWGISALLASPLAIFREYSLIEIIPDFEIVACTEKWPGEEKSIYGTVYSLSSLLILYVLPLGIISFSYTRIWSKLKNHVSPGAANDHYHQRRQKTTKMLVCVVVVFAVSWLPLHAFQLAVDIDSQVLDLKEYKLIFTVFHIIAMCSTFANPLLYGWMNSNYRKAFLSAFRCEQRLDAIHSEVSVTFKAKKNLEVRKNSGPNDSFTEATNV
It is filed as cell membranes, Membrane. Conditions: kan-ts.

The target in another assay is T3, Adenosine receptor A1 (Homo sapiens, UniProt P30542).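 Further: radioligand binding assay at the adenosine A1 receptor, with DPCPX serving as the labelled ligand; in other assays of this panel Not Active means under 50% inhibition at 10 µM.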
T3 sequence (P30542 whole entry): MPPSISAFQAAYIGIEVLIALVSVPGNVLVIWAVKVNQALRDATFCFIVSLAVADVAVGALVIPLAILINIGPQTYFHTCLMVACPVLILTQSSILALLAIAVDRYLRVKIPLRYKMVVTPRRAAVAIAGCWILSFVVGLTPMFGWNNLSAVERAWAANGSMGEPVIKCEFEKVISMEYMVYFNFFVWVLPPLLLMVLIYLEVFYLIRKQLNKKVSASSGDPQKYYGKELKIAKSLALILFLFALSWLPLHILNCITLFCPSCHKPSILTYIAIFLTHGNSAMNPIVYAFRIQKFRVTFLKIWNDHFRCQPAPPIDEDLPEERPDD
It is filed as cell membranes, CHO, Membrane.

Sequence of D(1A) dopamine receptor (P21728 whole entry): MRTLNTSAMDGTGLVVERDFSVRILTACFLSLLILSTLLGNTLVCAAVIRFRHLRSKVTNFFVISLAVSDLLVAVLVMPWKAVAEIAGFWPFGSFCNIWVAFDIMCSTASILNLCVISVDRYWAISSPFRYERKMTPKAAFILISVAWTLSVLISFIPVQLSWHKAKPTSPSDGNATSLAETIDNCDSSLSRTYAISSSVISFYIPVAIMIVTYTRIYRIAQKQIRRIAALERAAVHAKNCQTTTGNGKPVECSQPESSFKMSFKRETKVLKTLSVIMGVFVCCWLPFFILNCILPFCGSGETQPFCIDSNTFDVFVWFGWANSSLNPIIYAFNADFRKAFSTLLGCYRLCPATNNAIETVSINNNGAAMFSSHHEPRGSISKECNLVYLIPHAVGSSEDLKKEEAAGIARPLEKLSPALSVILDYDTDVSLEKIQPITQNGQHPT

On to `C=C(CC)C(=O)c1ccc(OCC(=O)O)c(Cl)c1Cl` [ETHACRYNIC ACID], for which the IC50 entry (in assay [1]; in assay [2]; on D(1A) dopamine receptor; in assay [3]; in assay [4]; on Adenosine receptor A1 (cho)) was “Not Active” throughout. In addition, the Ki entry in assay [3] was “Not Active”.
With `C#C[C@]1(O)CC[C@H]2[C@@H]3CCc4cc(O)ccc4[C@H]3CC[C@@]21C` [ETHINYL ESTRADIOL], the IC50 entry (in assay [1]; in assay [2]; at D(1A) dopamine receptor; in assay [3]; in assay [4]; against Adenosine receptor A1 (cho)) was “Not Active” each time. Moreover, the Ki entry in assay [3] is given as “Not Active”.
Take `OCCO` [ETHYLENE GLYCOL]: the IC50 result (in assay [1]; in assay [2]; at D(1A) dopamine receptor; in assay [3]; in assay [4]; on Adenosine receptor A1 (cho)) was “Not Active” throughout. In addition, the Ki entry in assay [3] is listed as “Not Active”.
As to `CC(=O)OCC(CCn1cnc2cnc(N)nc21)COC(C)=O` [FAMCICLOVIR], the IC50 result (in assay [1]; in assay [2]; on D(1A) dopamine receptor; in assay [3]; in assay [4]; on Adenosine receptor A1 (cho)) was “Not Active” throughout. The Ki result in assay [3] was “Not Active”.
With `O=C(O)Cc1ccc(-c2ccccc2)cc1` [FELBINAC], the IC50 result (in assay [1]; in assay [2]; on D(1A) dopamine receptor; in assay [3]; in assay [4]; at Adenosine receptor A1 (cho)) was “Not Active” throughout. For the same compound, the Ki entry in assay [3] is “Not Active”.
With `CCOC(=O)C1=C(C)NC(C)=C(C(=O)OC)C1c1cccc(Cl)c1Cl` (stereo not drawn) [FELODIPINE], the IC50 entry (in assay [1]; in assay [2]; at D(1A) dopamine receptor; in assay [3]; in assay [4]; against Adenosine receptor A1 (cho)) was “Not Active” in each case. Also, in assay [3], the Ki entry is “Not Active”.
For `CC(C(=O)O)c1ccc(-c2ccccc2)c(F)c1` (stereo not drawn) [FLURBIPROFEN], the concentration for half-maximal inhibition (IC50) entry (in assay [1]; in assay [2]; on D(1A) dopamine receptor; in assay [3]; in assay [4]; against Adenosine receptor A1 (cho)) was “Not Active” in each case. Also, in assay [3], the Ki result is given as “Not Active”.
On to `Cc1cn[nH]c1` [FOMEPIZOLE], for which the 50% inhibitory concentration (IC50) result (in assay [1]; in assay [2]; at D(1A) dopamine receptor; in assay [3]; in assay [4]; against Adenosine receptor A1 (cho)) was “Not Active” throughout. The inhibition constant Ki entry in assay [3] was “Not Active”.
`NC[C@@H]1O[C@H](O[C@H]2[C@@H](O)[C@H](O[C@@H]3[C@@H](O)[C@H](N)C[C@H](N)[C@H]3O[C@H]3O[C@H](CN)[C@@H](O)[C@H](O)[C@H]3N)O[C@@H]2CO)[C@H](N)[C@@H](O)[C@@H]1O` [FRAMYCETIN]: the IC50 result (in assay [1]; in assay [2]; at D(1A) dopamine receptor; in assay [3]; in assay [4]; on Adenosine receptor A1 (cho)) was “Not Active” throughout. Besides, the Ki entry in assay [3] is reported as “Not Active”.
Consider `C[C@H]([C@](O)(Cn1cncn1)c1ccc(F)cc1F)S(C)(=O)=O` [GENACONAZOLE], for which the IC50 result (in assay [1]; in assay [2]; at D(1A) dopamine receptor; in assay [3]; in assay [4]; against Adenosine receptor A1 (cho)) was “Not Active” in each case. In addition, the inhibition constant (Ki) result in assay [3] is on record as “Not Active”.
With `Cc1cnc(C(=O)NCCc2ccc(S(=O)(=O)NC(=O)NC3CCCCC3)cc2)cn1` [GLIPIZIDE], the IC50 result (in assay [1]; in assay [2]; at D(1A) dopamine receptor; in assay [3]; in assay [4]; against Adenosine receptor A1 (cho)) was “Not Active” in each case. For the same compound, in assay [3], the Ki entry is given as “Not Active”.
As to `Cc1c(F)c(N2CCNC(C)C2)cc2c1c(=O)c(C(=O)O)cn2C1CC1` (stereo not drawn) [GREPAFLOXACIN], the IC50 entry (in assay [1]; in assay [2]; on D(1A) dopamine receptor; in assay [3]; in assay [4]; at Adenosine receptor A1 (cho)) was “Not Active” in each case. Besides, in assay [3], the Ki entry was “Not Active”.
For the compound `COc1ccccc1OCC(O)CO` (stereo not drawn) [GUAIFENESIN], the IC50 result (in assay [1]; in assay [2]; on D(1A) dopamine receptor; in assay [3]; in assay [4]; at Adenosine receptor A1 (cho)) was “Not Active” in each case. In addition, in assay [3], the Ki result is listed as “Not Active”.
As to `N=C(N)N/N=C/c1c(Cl)cccc1Cl` [GUANABENZ], the IC50 entry in assay [1] is “Not Active”; in assay [2] it was “Not Active”; on D(1A) dopamine receptor it was “Not Active”; in assay [3] (read-out: IC50), 0.018 µM; in assay [4], “Not Active”; against Adenosine receptor A1 (cho) it was “Not Active”. Also, the Ki in assay [3] (read-out: Ki) is 0.012 µM.
`C[C@]12CCC(=O)C=C1CC[C@@H]1[C@@H]2[C@@H](O)C[C@@]2(C)[C@H]1CC[C@]2(O)C(=O)CO` [HYDROCORTISONE]: the IC50 result (in assay [1]; in assay [2]; on D(1A) dopamine receptor; in assay [3]; in assay [4]; against Adenosine receptor A1 (cho)) was “Not Active” each time. For the same compound, in assay [3], the Ki entry was “Not Active”.
With `C/C=C\c1ccc(O)c(OC)c1` [ISOEUGENOL], the IC50 entry (in assay [1]; in assay [2]; on D(1A) dopamine receptor; in assay [3]; in assay [4]; on Adenosine receptor A1 (cho)) was “Not Active” in each case. In addition, in assay [3], the Ki entry is given as “Not Active”.
On to `NC[C@H]1O[C@H](O[C@H]2[C@H](O)[C@@H](O[C@H]3O[C@H](CO)[C@@H](O)[C@H](N)[C@H]3O)[C@H](N)C[C@@H]2N)[C@H](O)[C@@H](O)[C@@H]1O` [KANAMYCIN], for which the IC50 entry (in assay [1]; in assay [2]; at D(1A) dopamine receptor; in assay [3]; in assay [4]; against Adenosine receptor A1 (cho)) was “Not Active” each time. The inhibition constant Ki entry in assay [3] was “Not Active”.
Regarding `CC[C@H](C)C(=O)O[C@H]1C[C@@H](C)C=C2C=C[C@H](C)[C@H](CC[C@@H]3C[C@@H](O)CC(=O)O3)[C@H]21` [LOVASTATIN], the IC50 result in assay [1] is “Not Active”; in assay [2] it was “Not Active”; on D(1A) dopamine receptor it was “Not Active”; in assay [3], “Not Active”; in assay [4] it was “Not Active”; at Adenosine receptor A1 (read-out: IC50), 26.7 µM. Also, the Ki result in assay [3] was “Not Active”; on Adenosine receptor A1 (read-out: Ki), 15.6 µM.
Take `CC(C(=O)O)c1ccc(CC2CCCC2=O)cc1` (stereo not drawn) [LOXOPROFEN]: the IC50 entry (in assay [1]; in assay [2]; at D(1A) dopamine receptor; in assay [3]; in assay [4]; at Adenosine receptor A1 (cho)) was “Not Active” in each case. In addition, the Ki entry in assay [3] is “Not Active”.
On to `Cc1cccc(Nc2ccccc2C(=O)O)c1C` [MEFENAMIC ACID], for which the IC50 result (in assay [1]; in assay [2]; at D(1A) dopamine receptor; in assay [3]; in assay [4]; at Adenosine receptor A1 (cho)) was “Not Active” in each case. Besides, the Ki entry in assay [3] is given as “Not Active”.
For `CC(=O)O[C@]1(C(C)=O)CC[C@H]2[C@@H]3C=C(C)C4=CC(=O)CC[C@]4(C)[C@H]3CC[C@@]21C` [MEGESTROL ACETATE], the IC50 entry (in assay [1]; in assay [2]; at D(1A) dopamine receptor; in assay [3]; in assay [4]; against Adenosine receptor A1 (cho)) was “Not Active” each time. Moreover, the Ki result in assay [3] is “Not Active”.
